Assay results reported in patent publication US5935969A, “Pyrido-thiopyrandoinazoles with antitumor activity” (University of Vermont, priority 1998, dated 1999).
≈ marks a conversion by molar mass, not a printed value. Like-named read-outs stand apart in the source and are kept apart here.

What was measured:
[1] = system: LoVo; experiment: MTT cytotoxicity, human colon adenocarcinoma LoVo; format: cell-based; conditions: read-out: IC50 LoVo (concentration causing 50% inhibition of tumor cells growth)
Experimental: (§1) The evaluation of the biological activity for the compounds of this invention was performed "in vitro" and "in vivo" following the protocols developed by the U.S. National Cancer Institute.
(§2) The evaluation of the "in vitro" cytotoxic activity of the compounds of the invention was performed using the following cell lines: a murine sarcoma (S-180) and its subline expressing multidrug resistance (S-180/A-10), a leukemia (L1210), a human colon adenocarcinoma cell line (LoVo) isolated from a metastatic nodule and its subline expressing multidrug resistance. This latter subline is resistant to a number of antitumor agents, among which are doxorubicin, VP-16 and vincristine.
(§3) The columns headed L1210, S180 LoVo and LoVo/Dx contain the IC50 values against said tumor cell lines, as above described.
(§4) CYTOTOXICITY ON LOVO AND LOVO/DX WAS DETERMINED BY MTT ASSAY FOLLOWING 1

[2] = system: LoVo/Dx; experiment: MTT cytotoxicity, multidrug-resistant subline LoVo/DX; format: cell-based, human; conditions: for IC50: Homo sapiens, read-out: IC50 LoVo/Dx (concentration causing 50% inhibition of tumor cells growth)
Experimental: as §1, §2
The columns headed L1210, S180 LoVo and LoVo/Dx contain the IC50 values against said tumor cell lines, as above described. […]
as §4

[3] = W.H.O. grade; phase I and phase II clinical trials; cited from earlier work
[4] = rat; cited from earlier work
[5] = humans; cited from earlier work
[6] = system: L1210; experiment: MTT cytotoxicity, leukemia L1210; format: cell-based; conditions: Mus musculus, MTT assay, read-out: IC50 L1210 (concentration causing 50% inhibition of tumor cells growth)
Experimental: as §1, §2, §3

[7] = system: S180; experiment: MTT cytotoxicity, murine sarcoma S-180; format: cell-based; conditions: Mus musculus; murine sarcoma S-180, MTT assay; read-out: IC50 S180 (concentration causing 50% inhibition of tumor cells growth)
Experimental: as §1, §2, §3

[8] = system: LoVo/Dx; conditions: in words; cited from earlier work
[9] = cited from earlier work
[10] = in vivo; cited from earlier work
[11] = system: cell histotypes developing resistance against doxorubicin mediated by overexpression of glycoprotein P; conditions: MDR; cited from earlier work
[12] = i.p., non-tumor bearing rats, equieffective antitumor dosages; cited from earlier work
[13] = system: advanced breast cancer, acute leukemia and lymphoma; conditions: cited from earlier work
[14] = MTT assay, following 1 hour of drug exposure
[15] = LoVo/Dx multidrug-resistant subline, MTT assay, following 1 hour of drug exposure
[16] = in animals, versus mitoxantrone

Compound | IC50 [6] [µg/mL] | IC50 [7] [µg/mL] | IC50 [1, 14] [µg/mL] | IC50 [2, 15] [µg/mL] | further results
O=C1c2c(O)cccc2-c2nn(CCNCCO)c3ccc(NCCNCCO)c1c23 [CI-941] |  |  |  |  | IC50 ([1]; 1 h): 0.053 µg/mL (≈ 0.125 µM); IC50 ([2]; LoVo/DX, 1 h): 44.5 µg/mL (≈ 105 µM); activity in the resistant cell line ([2]; LoVo/DX, in words): loses completely its activity; leukopenia (dose limiting) [3]: grade 3 and 4; neutropenia (dose limiting) [3]: grade 4; nephrotoxicity [4]: marked nephrotoxicity; cardiotoxicity [5]: irreversible cardiotoxicity; symptoms of cardiac failure or acute cardiac events [5]: no symptoms of cardiac failure or acute cardiac events
CN(C)CCn1nc2c3c(c([N+](=O)[O-])ccc31)Sc1ncccc1-2 [Example 1] | 0.08 (≈ 0.234 µM) | 0.17 (≈ 0.498 µM) |  |  | 
CN(C)CCn1nc2c3c(c([N+](=O)[O-])ccc31)Sc1cnccc1-2 [Example 3, N,N-dimethyl-5-nitro-2H-pyrido[4',3':5,6]thiopyrano[4,3,2-cd]indazole-2-ethanamine] | 0.05 (≈ 0.146 µM) | 0.14 (≈ 0.41 µM) |  |  | 
CN(C)CCn1nc2c3c(c([N+](=O)[O-])ccc31)Sc1ccncc1-2 [Example 4, N,N-dimethyl-5-nitro-2H-pyrido[3',4':5,6]thiopyranol[4,3,2cd]indazole-2-ethanamine] | 0.00062 (≈ 0.00182 µM) | 0.0032 (≈ 0.00937 µM) |  |  | 
CN(C)CCn1nc2c3c(c(N)ccc31)Sc1ccncc1-2 [Example 5, N,N-dimethyl-5-amino-2H-pyrido[3',4':5,6]thiopyrano[4,3,2-cd]indazole-2-ethanamine] | 0.003 (≈ 0.00963 µM) | 0.0066 (≈ 0.0212 µM) | 0.016 (≈ 0.0514 µM) | 0.027 (≈ 0.0867 µM) | 
CN(C)CCNc1ccc2c3c(nn2CCN(C)C)-c2cccnc2Sc13 [Example 6, N'-[2-[2-(dimethylamino)ethyl]-2H-pyrido[3',2':5,6]thiopyrano[4,3,2-cd]indazol-5-yl]--N,N-dimethyl-1,2-ethanediamine] | 0.008 (≈ 0.0209 µM) | 0.028 (≈ 0.0732 µM) | 2.4 (≈ 6.27 µM) | 2.6 (≈ 6.8 µM) | 
CN(C)CCn1nc2c3c(c(NCCN)ccc31)Sc1ncccc1-2 [Example 7, N'-[2-[2-(dimethylamino)lethyl]-2H-pyrido[3',2':5,6]thiopyrano[4,3,2-cd]indazol-5-yl]l-1,2-ethanediamine] | 0.0125 (≈ 0.0353 µM) | 0.058 (≈ 0.164 µM) | 0.027 (≈ 0.0762 µM) | 16.8 (≈ 47.4 µM) | 
CN(C)CCn1nc2c3c(c(NCCN)ccc31)Sc1ccncc1-2 [Example 8] | 0.0016 (≈ 0.00451 µM) | 0.0029 (≈ 0.00818 µM) | 0.008 (≈ 0.0226 µM) | 0.26 (≈ 0.733 µM) | 
COc1cc(C2c3cc4c(cc3C(OC3OC5COC(C)OC5C(O)C3O)C3COC(=O)C23)OCO4)cc(OC)c1O (stereo not shown) [VP-16] |  |  |  |  | resistance of the LoVo/DX subline [8]: resistant
O=C1c2ccccc2C(=O)c2c(NCCNCCO)ccc(NCCNCCO)c21 [ametantrone, 1,4-bis[(2-(2-hydroxyethylamino)ethyl)amino]anthracene-9,10-dione] |  |  |  |  | cardiotoxicity relative to mitoxantrone [9, 16]: about 10 -fold less; potency relative to mitoxantrone [9, 16]: about 10 -fold less; myelodepressive toxicity [10]: remarkable myelodepressive toxicity; cross-resistance to doxorubicin-resistant cell histotypes [11]: cross-resistance
COc1cccc2c1C(=O)c1c(O)c3c(c(O)c1C2=O)C[C@@](O)(C(=O)CO)C[C@@H]3O[C@H]1C[C@H](N)[C@H](O)[C@H](C)O1 [doxorubicin, reference compound] |  |  |  |  | IC50 ([1]; 1 h): 0.58 µg/mL (≈ 1.07 µM); IC50 ([2]; LoVo/DX, 1 h): 53.8 µg/mL (≈ 99 µM); accumulation of doxorubicin in LoVo/DX [8]: reduced accumulation; resistance of the LoVo/DX subline [8]: resistant
CN(C)CCn1nc2c3c(c(NCCN)ccc31)Sc1cnccc1-2 [ex.9-cpd 30, N'-[2-[2-(dimethylamino)ethyl]-2H-pyrido[4',3':5,6]thiopyrano[4,3,2-cd]indazol-5-yl]-1,2-ethanediamine] | 0.014 (≈ 0.0395 µM) | 0.058 (≈ 0.164 µM) |  |  | 
CN(C)CCn1nc2c3c(c(NC(=O)CN)ccc31)Sc1ncccc1-2 [ex. 10-cpd 1, N'-[2-(2-dimethylamino)ethyl]-5-(2'-amino-acetylamino)-2H-pyrido[3',2':5,6]thiopyrano [4,3,2-cd]indazole] | 0.03 (≈ 0.0814 µM) | 0.22 (≈ 0.597 µM) |  |  | 
CN(C)CCn1nc2c3c(c(NC(=O)CN)ccc31)Sc1ccncc1-2 [ex. 10-cpd 2, N'-[2-(2-dimethylamino)ethyl]-5-(2'-amino-acetylamino)-2H-pyrido[3',4':5,6]thiopyrano [4,3,2-cd]indazole] |  |  | 0.04 (≈ 0.109 µM) | 0.21 (≈ 0.57 µM) | 
CCN(CC)CCn1nc2c3c(c([N+](=O)[O-])ccc31)Sc1ccncc1-2 [ex. 11-cpd 1, N,N-diethyl-5-nitro-2 H-pyrido[3',4': 5,6]thiopyrano[4,3,2-cd]indazole-2-ethanamine] | 0.00061 (≈ 0.00165 µM) | 0.0031 (≈ 0.00839 µM) |  |  | 
CCN(CC)CCn1nc2c3c(c([N+](=O)[O-])ccc31)Sc1ncccc1-2 [ex. 11-cpd 2, N,N-diethyl-5-nitro-2H-pyrido[3',2':5,6]thiopyrano[4,3,2-cd]indazole-2-ethanamine] | 0.2 (≈ 0.541 µM) | 0.22 (≈ 0.595 µM) |  |  | 
CCN(CC)CCn1nc2c3c(c(N)ccc31)Sc1ccncc1-2 [ex. 12-cpd 1, N,N-diethyl-5-amino-2H-pyrido[3',4':5,6]thiopyrano[4,3,2-cd]indazole-2-ethanamine] | 0.0015 (≈ 0.00442 µM) | 0.0031 (≈ 0.00913 µM) | 0.036 (≈ 0.106 µM) | 0.094 (≈ 0.277 µM) | 
O=C1c2c(O)ccc(O)c2C(=O)c2c(NCCNCCO)ccc(NCCNCCO)c21 [mitoxantrone, 5,8-dihydroxy-1,4-bis[(2-(2-hydroxyethylamino)ethyl)amino]anthracene-9,10-dione] |  |  |  |  | IC50 ([1]; 1 h): 0.024 µg/mL (≈ 0.054 µM); IC50 ([2]; LoVo/DX, 1 h): 0.67 µg/mL (≈ 1.51 µM); cardiotoxicity in comparison to doxorubicin ([9]; animal studies): diminished cardiotoxicity in comparison to doxorubicin; delayed toxicity [12]: a delayed toxicity is observed only with mitoxantrone; clinical activity ([13]; clinical trials, advanced breast cancer, acute leukemia and lymphoma): particularly promising activity; clinical cardiotoxicity ([13]; mostly in patients previously treated with doxorubicin): some clinical cardiotoxicity has been observed; myelodepressive toxicity [10]: remarkable myelodepressive toxicity
CC[C@]1(O)C[C@H]2CN(CCc3c([nH]c4ccccc34)[C@@](C(=O)OC)(c3cc4c(cc3OC)N(C=O)[C@H]3[C@@](O)(C(=O)OC)[C@H](OC(C)=O)[C@]5(CC)C=CCN6CC[C@]43[C@@H]65)C2)C1 [vincristine] |  |  |  |  | resistance of the LoVo/DX subline [8]: resistant
